{"source": "patent US5530138A", "about": "“Compounds and use thereof” (priority 1993, dated 1996)", "data": [{"biological_target": "T1, binding of 3H-pirenzepine to brain homogenate of rat (Rattus norvegicus, UniProt P08482)", "T1 construct": "from tissue; host or cells: brain of male SD rats, cerebellum removed; supernatant of 1000×g, re-homogenized", "T1 sequence (P08482 1-460)": "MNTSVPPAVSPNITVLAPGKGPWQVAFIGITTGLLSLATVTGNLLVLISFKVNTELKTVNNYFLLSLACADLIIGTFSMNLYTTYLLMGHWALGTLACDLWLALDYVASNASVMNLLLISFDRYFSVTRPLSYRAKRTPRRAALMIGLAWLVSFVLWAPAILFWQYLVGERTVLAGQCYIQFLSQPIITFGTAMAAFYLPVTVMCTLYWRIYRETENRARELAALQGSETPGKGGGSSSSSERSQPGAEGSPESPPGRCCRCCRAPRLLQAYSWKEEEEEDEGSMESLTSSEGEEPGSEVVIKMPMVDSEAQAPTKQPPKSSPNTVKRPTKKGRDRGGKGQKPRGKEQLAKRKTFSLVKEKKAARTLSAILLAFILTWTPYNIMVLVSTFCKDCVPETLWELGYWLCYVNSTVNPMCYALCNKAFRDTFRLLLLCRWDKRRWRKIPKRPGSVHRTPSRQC", "assay": "Inhibition against binding of 3H-pirenzepine to brain homogenate of rat", "details": "2.0 nM 3H-pirenzepine; rat brain homogenate without cerebellum; 550 mM phosphate buffer pH 7.4; 60 minutes at room temperature; read-out: 50% inhibition (IC50) against binding of 3H-pirenzepine to brain homogenate", "procedure": "(§1) (Inhibition against binding of 3H-pirenzepine to brain homogenate of rat)\n(§2) A brain homogenate of rat was prepared in accordance with the method described by Yamanura and Synder [\"Proc. Natr. Acad. Sci. USA\", Vol. 71, pages 1725-1729 (1974)]. Namely, SD male rats were killed by decapitation to exentrate each brain. From the brains, each cerebellum was removed and 0.32 M aqueous sucrose solution in 10-folds by volume was added under ice-cooling condition to homogenize the same by a Potter-Elvehjem type glass homogenizer. The resulting homogenate was centrifuged for 10 minutes (1000×g) to obtain a supernatant by removing a precipitate, which supernatant was further homogenized by a homogenizer of \"Polytron\" to obtain a fraction to be used as a brain homogenate.\n(§3) Tests were carried out according to the method described by Flynn and Mash [\"J. Pharm. Exp. Ther.\", Vol. 250, pages 573-581 (1989). Namely, to the brain homogenate (0.035 ml, protein content: 0.6 mg), 550 mM phosphate buffer (pH 7.4, 1 ml) containing 2.0 nM ^3 H-pirenzepine and a Test or Control compound (1 ml, if the test or control compound is solid form, it is dissolved by the 550 mM phosphate buffer) were added to cause a reaction for 60 minutes at room temperature. Then, an ice-cooled buffer (3.0 ml) same with the above was added to the reaction mixture. Thereafter, the mixture was filtrated by a Whattman GF/B filter which was previously dipped in 0.1% polyethyleneimine solution for 60 minutes. The filter was washed twice by the buffer solution (each 3.0 ml) and an emulsion scintillatot for measuring luminescence by a scintillation counter. A 50% inhibition (IC50)of the test or control compound against binding of 3H-pirenzepine to brain homogenate was calculated.", "units": {"IC50": "nM"}, "values": [{"smiles": "Fc1ccccc1NCCC12CCCN1CCC2", "note": "[Example 31, N-[2-(1-Azabicyclo[3.3.0]octan-5-yl)ethyl]-2-fluoroaniline]", "IC50": 1590}, {"smiles": "CCN(CC12CCCN1CCC2)c1ccc([N+](=O)[O-])c2ccccc12", "note": "[Example 12, 1-[N-(1-azabicyclo[3.3.0]octan-5-yl)methyl-N-ethylamino]-4-nitronaphthalene]", "IC50": 200}, {"smiles": "COc1ccc(N(C)CC23CCCN2CCC3)c2ccccc12", "note": "[Example 3, 1-[N-(1-Azabicyclo[3.3.0]octan-5-yl)methyl-N-methylamino]-4-methoxynaphthalene]", "IC50": 90}, {"smiles": "O=[N+]([O-])c1ccccc1NCCC12CCCN1CCC2", "note": "[Example 23, N-[2-(1-Azabicyclo[3.3.0]octan-5-yl)ethyl]-2-nitroaniline]", "IC50": 100}, {"smiles": "CN(CCC12CCCN1CCC2)c1ccccc1C#N", "note": "[Example 29, 2-{[2-(1-Azabicyclo[3.3.0]octan-5-yl)ethyl]methylamino}-benzonitrile]", "IC50": 240}, {"smiles": "N#Cc1ccc(NCCC23CCCN2CCC3)cc1", "note": "[Example 28, 4-[2-(1-Azabicyclo[3.3.0]octan-5-yl)ethylamino]-benzonitrile]", "IC50": 4570}, {"smiles": "N#Cc1ccccc1NCCC12CCCN1CCC2", "note": "[Example 27, 2-[2-(1-Azabicyclo[3.3.0]octan-5-yl)ethylamino]benzonitrile]", "IC50": 320}, {"smiles": "C=C1CC2(CCN(C)CC2)OC1C", "note": "(stereo not drawn) [2,8-Dimethyl-3-methylene-1-oxa-8-azabicyclo-[4.5]decane, reference compound]", "IC50": 23600}, {"smiles": "CN(CC12CCCN1CCC2)c1ccccc1-c1ccccc1", "note": "[Example 20, N-(1-Azabicyclo[3.3.0]octan-5-yl)methyl-N-methyl-2-phenylaniline]", "IC50": 100}, {"smiles": "CN(CC12CCCN1CCC2)c1ccc(F)c2ccccc12", "note": "[Example 8, 1-[N-(1-Azabicyclo[3.3.0]octan-5-yl)methyl-N-methylamino]-4-fluoronaphthalene]", "IC50": 20}, {"smiles": "CN(CCC12CCCN1CCC2)c1ccccc1[N+](=O)[O-]", "note": "[Example 25, N-[2-(1-Azabicyclo[3.3.0]octan-5-yl)ethyl]-N-methyl-2-nitroaniline]", "IC50": 200}, {"smiles": "O=CN(CC12CCCN1CCC2)c1ccccc1", "note": "[Example 13, N-(1-azabicyclo[3.3.0]octan-5-yl)methyl-N-formylaniline]", "IC50": 300}, {"smiles": "N#Cc1ccccc1NCC12CCCN1CCC2", "note": "[Example 34, 2-[(1-Azabicyclo[3.3.0]octan-5-yl)methylamino]benzonitrile]", "IC50": 550}, {"smiles": "CN(CC12CCCN1CCC2)c1cccc2ccccc12", "note": "[Example 6, 1-[N-(1-Azabicyclo[3.3.0]octan-5-yl)methyl-N-methylamino]-naphthalene]", "IC50": 30}, {"smiles": "Clc1ccccc1NCCC12CCCN1CCC2", "note": "[Example 30, N-[2-(1-Azabicyclo[3.3.0]octan-5-yl)ethyl]-2-chloroaniline]", "IC50": 430}, {"smiles": "O=[N+]([O-])c1cc(F)ccc1NCCC12CCCN1CCC2", "note": "[Example 32, N-[2-(1-Azabicyclo[3.3.0]octan-5-yl)ethyl]-4-fluoro-2-nitroaniline]", "IC50": 690}, {"smiles": "CN(CC12CCCN1CCC2)c1ccccc1[N+](=O)[O-]", "note": "[Example 17, N-(1-azabicyclo[3.3.0]octan-5-yl)methyl-N-methyl-2-nitroaniline]", "IC50": 200}, {"smiles": "CN(CC12CCCN1CCC2)c1ccc(Cl)c2ccccc12", "note": "[Example 1, 1-[N-(1-Azabicyclo[3.3.0]octan-5-yl)methyl-N-methylamino]-4-chloronaphthalene]", "IC50": 10}, {"smiles": "O=[N+]([O-])c1ccccc1NCCC12CCCN1CCC2", "note": "[Example 36, N-[2-(1-Azabicyclo[3.3.0]octan-5-yl)ethyl]-2-nitroaniline(fumarate)]", "IC50": 90}]}, {"biological_target": "T1, binding of 3H-pirenzepine to brain homogenate of rat", "assay": "Inhibition against binding of 3H-pirenzepine to brain homogenate of rat", "details": "read-out: 50% inhibition (IC50) against binding of 3H-pirenzepine to brain homogenate; 2.0 nM 3H-pirenzepine; rat brain homogenate without cerebellum; 550 mM phosphate buffer pH 7.4; 60 minutes at room temperature", "procedure": "as §1, §2, §3", "units": {"IC50": "nM"}, "values": [{"smiles": "NC(=O)c1ccccc1NCCC12CCCN1CCC2", "note": "[Example 33, 2-{[2-(1-Azabicyclo[3.3.0]octan-5-yl)ethyl]amino}benzamide]", "IC50": 1110}]}, {"tested_on": "acetylchotine esterass", "assay": "not given", "details": "background; cited from earlier work", "values": [{"smiles": "Nc1c2c(nc3ccccc13)CCCC2", "note": "[THA, 1,2,3,4tetrahydro-9-aminoacridine]", "inhibition to acetylcholine esterase": "its action cannot be said as powerful"}]}]}
